From PMC5843698, “Use of QSPR Modeling to Characterize In Vitro Binding of Drugs to a Gut-Restricted Polymer” (Pharmaceutical Research, 2018)
Structures can show the parent of a compound that is named as a salt. Where two headings read alike, the source gives them in different places.

Assays:
[1] = In vitro binding assay: free test drug recovered after 3 h incubation with and without patiromer in SGF, acetate buffer or SIF; conditions: for SGF / SIF / AB: QSPR input data; for SGF: test matrix SGF; for In Vitro Binding (% Drug Recovered) SGF (pH 3): simulated gastric fluid, final pH 3.0; for In vitro patiromer binding category: strong, weak or non-binding; for SIF: test matrix SIF; for AB: test matrix acetate buffer (AB); for In Vitro Binding (% Drug Recovered) SIF (pH 5.9): simulated intestinal fluid, final pH 5.9
Description: Patiromer binding to test compounds was assessed by comparing free test drug concentrations after incubation with and without patiromer. […] Test drug concentrations were based on the lowest clinically relevant dose of test drug in US prescribing information in a 1-L volume.
Three test buffers were used: simulated gastric fluid without added pepsin (SGF; initial pH 1.2), acetate buffer (AB; initial pH 4.5), and simulated intestinal fluid without added pancreatin (SIF; initial pH 6.8). Tween-20 was included at 0.05% v/v as a surfactant to aid in solubilizing test drugs.
Binding studies were performed in a 10 ml volume in 16×100 mm borosilicate tubes, and incubated for 3 h at 37°C with end-over-end rotation at ~25 rpm. After incubation, patiromer was allowed to settle for 5 min; supernatants were withdrawn and passed through a 0.45 μm filter, collected by centrifugation, and transferred to chromatography vials for analysis. Control samples containing buffer and drug, but without patiromer, were subjected to the same experimental process. For 24 of the test drugs, a reversed phase high performance liquid chromatography method was used for analysis in the three test matrices. […] During method qualification, we conducted a pretest of each drug in test media alone to assure no significant loss in recovery during the incubation or filtration steps. If there was not sufficient recovery compared to theoretical concentration, the drug could not be evaluated in that medium. The recovered drug in the presence or absence of patiromer was used to calculate percent recovery of test drug, and represents the geometric mean of 12 replicates.
To measure binding, each compound was co-incubated with patiromer using the highest single clinical dose of polymer and the minimum clinical dose of test drug. […] Following co-incubation, patiromer and any bound drug were removed by centrifugation and the remaining unbound (recovered) drug was measured in the supernatant.

[2] = logP determination by titration in octanol/water
Excerpt: The shift of the aqueous pKas in the presence of octanol was used to determine the logP of the different species.

[3] = pKa determination by titration in aqueous solution (UV or pH monitored)
Description: Test drug pKas were determined experimentally by titration in aqueous solution. Ionization state was monitored by UV or pH. Reported values are the average of three independent determinations. […] Drug concentration was in the range 17–31 μM (UV) or ≥0.4 mM (pH).

[4] = logD determination (liquid-liquid distribution chromatography, octanol-coated column)
Description: The logD of the sample was determined at pH 7.4 by liquid-liquid distribution chromatography. Compounds were eluted from an octanol-coated column with an octanol-saturated mobile phase adjusted to pH 7.4. Compound retention time was converted to logD value by comparison to the retention time of a set of standard compounds with well-characterized logD octanol values.

[5] = across SGF, AB and SIF test matrices
[6] = patiromer 25.2 g/L, 3 h, 37°C, geometric mean of 12 replicates
[7] = aqueous solution, pKa (B = base), basic group, average of three determinations
[8] = octanol-coated column with octanol-saturated mobile phase, pH 3
[9] = octanol-coated column with octanol-saturated mobile phase, pH 4.5
[10] = octanol-coated column with octanol-saturated mobile phase, pH 5.9
[11] = acetate buffer pH 4.5, patiromer 25.2 g/L, 3 h, 37°C, geometric mean of 12 replicates
[12] = aqueous solution, pKa (A = acid), acidic group, average of three determinations

Molecule | SGF [1] | In Vitro Binding (% Drug Recovered) SGF (pH 3) [1, 6] [%] | logP ([2]; octanol/water) | chromatographic logD [4, 8] | chromatographic logD [4, 9] | chromatographic logD [4, 10] | SIF [1] | AB [1] | In Vitro Binding (% Drug Recovered) Acetate Buffer (pH 4.5) [1, 11] [%] | In Vitro Binding (% Drug Recovered) SIF (pH 5.9) [1, 6] [%] | Binding categories (level of in vitro interaction with patiromer) [1, 5] | other results
CCOC(=O)C1=C(COCCN)NC(C)=C(C(=O)OC)C1c1ccccc1Cl (stereo not drawn) [Amlodipine besylate] | – | – | 3.39 | 1.44 | 1.44 | 1.46 | – | – | – | – | – | –
CC1=C(C(=O)O)N2C(=O)[C@@H](NC(=O)[C@H](N)c3ccccc3)[C@H]2SC1 [Cephalexin] | 88.7 | 88.7 | – | – | – | – | 104.4 | 95 | 95 | 104.4 | No binding (<30% drug bound in any test matrix) | In vitro patiromer binding category [1]: non-binding
Digoxin | – | – | – | – | – | – | 103.4 | 109.3 | 109.3 | 103.4 | No binding (<30% drug bound in any test matrix) | –
CC(=O)S[C@@H]1CC2=CC(=O)CC[C@]2(C)[C@H]2CC[C@@]3(C)[C@@H](CC[C@@]34CCC(=O)O4)[C@H]12 [Spironolactone] | 78.7 | 78.7 | 2.53 | 2.53 | 2.53 | 2.53 | 96.8 | 98.6 | 98.6 | 96.8 | No binding (<30% drug bound in any test matrix) | –
CC(C)c1c(C(=O)Nc2ccccc2)c(-c2ccccc2)c(-c2ccc(F)cc2)n1CC[C@@H](O)C[C@@H](O)CC(=O)O [Atorvastatin calcium] | 91.2 | 91.2 | – | – | – | – | 101.1 | 93.3 | 93.3 | 101.1 | No binding (<30% drug bound in any test matrix) | –
NS(=O)(=O)c1cc(C(=O)O)c(NCc2ccco2)cc1Cl [Furosemide] | 67.3 | 67.3 | – | – | – | – | 79.1 | 94.5 | 94.5 | 79.1 | Weak binder (30–55% bound in one test matrix) | –
NCCCC[C@H](N[C@@H](CCc1ccccc1)C(=O)O)C(=O)N1CCC[C@H]1C(=O)O [Lisinopril] | 77.9 | 77.9 | -0.51 | -0.85 | -0.52 | -0.54 | 98.5 | 100.7 | 100.7 | 98.5 | No binding (<30% drug bound in any test matrix) | pKa [3, 12]: 1.63; pKa [3, 7]: 7.13
CC(=O)Oc1ccccc1C(=O)O [Aspirin] | 100.7 | 100.7 | 0.9 | 0.78 | -0.14 | -1.5 | 99.9 | 99.8 | 99.8 | 99.9 | No binding (<30% drug bound in any test matrix) | –
Cc1cnc(C(=O)NCCc2ccc(S(=O)(=O)NC(=O)NC3CCCCC3)cc2)cn1 [Glipizide] | 72.9 | 72.9 | – | – | – | – | 98.5 | 96.5 | – | 98.5 | No binding (<30% drug bound in any test matrix) | In Vitro Binding (% Drug Recovered) Acetate Buffer (pH 4.5) ([1]; pH 4.5): 96.5%
C[C@@H](NCCCc1cccc(C(F)(F)F)c1)c1cccc2ccccc12 [Cinacalcet HCl] | 13.4 | 13.4 | 5.58 | 2.41 | 2.44 | 2.83 | 18.3 | 19.3 | 19.3 | 18.3 | – | In vitro patiromer binding category [1]: Strong patiromer binding; pKa [3, 7]: 8.85
Oc1ncnc2[nH]ncc12 [Allopurinol] | 85.7 | 85.7 | -0.3 | -0.3 | -0.3 | -0.3 | 94.2 | 90.1 | 90.1 | 94.2 | No binding (<30% drug bound in any test matrix) | pKa [3, 12]: 9.18
CC1(C)S[C@@H]2[C@H](NC(=O)[C@H](N)c3ccc(O)cc3)C(=O)N2[C@H]1C(=O)O [Amoxicillin] | – | – | -0.02 | 1.65 | 0.46 | 0 | 99.4 | 99.2 | 99.2 | 99.4 | No binding (<30% drug bound in any test matrix) | pKa (A = acid) ([3]; acidic group, average of three determinations): 2.60; pKa [3, 12]: 9.59; pKa [3, 7]: 7.35
O=C([O-])[O-].[Li+].[Li+] [Lithium carbonate] | – | 93.3 | – | – | – | – | – | – | 88.8 | 56.9 | – | Binding categories (level of in vitro interaction with patiromer) [1]: Weak binder (key: No binding: <30% drug bound in any test matrix; Weak binder: 30–55% bound in one test matrix; Strong binder: >55% bound in two or three test matrices)
COc1ccc(-n2nc(C(N)=O)c3c2C(=O)N(c2ccc(N4CCCCC4=O)cc2)CC3)cc1 [Apixaban] | 75.6 | 75.6 | < 1.4 | < 1.4 | < 1.4 | < 1.4 | 97.8 | 97.3 | 97.3 | 97.8 | No binding (<30% drug bound in any test matrix) | –
CC(=O)CC(c1ccccc1)c1c(O)c2ccccc2oc1=O (racemic) [Warfarin (R/S), Warfarin] | – | – | – | – | – | – | – | – | – | – | – | logP [2]: 3.25; pKa [3]: 4.94; chromatographic logD ([4]; pH 3): 3.25; chromatographic logD ([4]; pH 4.5): 3.12; chromatographic logD ([4]; pH 5.9): 2.25

Second part, led by results:

SGF [1] | In Vitro Binding (% Drug Recovered) SGF (pH 3) [1, 6] [%] | logP ([2]; octanol/water) | chromatographic logD [4, 8] | chromatographic logD [4, 9] | chromatographic logD [4, 10] | SIF [1] | AB [1] | In Vitro Binding (% Drug Recovered) Acetate Buffer (pH 4.5) [1, 11] [%] | In Vitro Binding (% Drug Recovered) SIF (pH 5.9) [1, 6] [%] | Molecule | Binding categories (level of in vitro interaction with patiromer) [1, 5] | other results
66 | 66 | 4.06 | 2.4 | 3.67 | 4.03 | – | – | – | – | COC(=O)[C@H](c1ccccc1Cl)N1CCc2sccc2C1 [Clopidogrel bisulfate] | Weak binder (30–55% bound in one test matrix) | In vitro patiromer binding category [1]: Weak binders; pKa [3, 7]: 4.66
83.4 | 83.4 | 2.43 | 2.43 | 2.43 | 2.43 | 92.8 | 90.2 | 90.2 | 92.8 | O=C1NC(=O)C(c2ccccc2)(c2ccccc2)N1 [Phenytoin sodium] | No binding (<30% drug bound in any test matrix) | pKa [3, 12]: 8.18
– | 28.8 | < -1.5 | < -1.5 | < -1.5 | < -1.5 | – | – | 50.7 | 42.9 | Cc1ncc(C[n+]2csc(CCO)c2C)c(N)n1 [Thiamin] | – | pKa [3, 7]: 4.88
– | – | 1.91 | -4.7 | -3.2 | -1.8 | – | – | – | – | COCCc1ccc(OCC(O)CNC(C)C)cc1 (stereo not drawn) [Metoprolol tartrate] | – | –
86.4 | 86.4 | – | – | – | – | 98 | 101.4 | 101.4 | 98 | CCCCC(=O)N(Cc1ccc(-c2ccccc2-c2nnn[nH]2)cc1)[C@H](C(=O)O)C(C)C [Valsartan] | No binding (<30% drug bound in any test matrix) | In vitro patiromer binding category [1]: non-binding
71.9 | 71.9 | 1.43 | 1.43 | 1.43 | 1.43 | 95.1 | 92.9 | 92.9 | 95.1 | O=C(NC[C@H]1CN(c2ccc(N3CCOCC3=O)cc2)C(=O)O1)c1ccc(Cl)s1 [Rivaroxaban] | No binding (<30% drug bound in any test matrix) | –
– | – | < -1.5 | < -1.5 | < -1.5 | < -1.5 | – | – | – | – | Cc1cc2nc3c(=O)[nH]c(=O)nc-3n(C[C@H](O)[C@H](O)[C@H](O)CO)c2cc1C [Riboflavin] | – | pKa [3, 12]: 9.87
